In patent US10723727B2, “Tubulysin analogs and methods for their preparation” (priority 2016, dated 2020):

Molecular target: T1, tubulin/RB3-stathmin-like-domain (RB3-SLD-tdm) complex (Sus scrofa, UniProt P02550+P02554)
T1 construct: purchased Cytoskeleton, Inc. T240; host or cells: RB3-SLD was made in house in E. coli
Assay: Tubulin Peptide-Binding Site Competition Assay (fluorescence polarization)
Design: species or system Porcine
Settings: FP competition with BODIPY-labeled vinca peptide probe; read after five hours at 22° C.; read-out: Tubulin Peptide-Binding Site Competition Assay IC50
Method: Tubulin Peptide-Binding Site Competition Assay
Tubulin binding potency was measured for payloads or cysteine-capped linker-payloads using a fluorescence polarization (FP) competition assay. The binding of a BODIPY-labeled vinca peptide probe (# B31) to a tubulin/RB3-stathmin-like-domain (RB3-SLD-tdm) complex generates a high FP signal, which can be decreased when mixing with test compounds that compete with the FP probe. The order of addition for the reagents in the FP assay was designed to pre-mix the FP probe with various concentrations of the test compound before mixing them with the tubulin/RB3-SLD-dm complex. The final assay concentrations of the probe, tubulin and RB3-SLD-dm were 3, 6, and 100 nM, respectively. IC50 for each test compound is obtained by fitting the dose-dependent FP signal change using GraphPad Prism version 5 software (La Jolla, Calif.) while Ki is converted from the IC50 using the equations described previously (Nikolovska-Coleska et al., 2004). The FP signals were measured on an Infinite M1000 (Tecan, San Jose, Calif.) using ProxiPlate-384 F Plus, Black (Perkin-Elmer, Waltham, Mass., Cat #6008260) with 15 μL of solution per well. Sample dilution and mixing were done using a Beckman Biomek XF (Brea, Calif.). Porcine tubulin was purchased from Cytoskeleton, Inc. (Denver, Colo., Cat #T240) and RB3-SLD was expressed in E. coli. and purified on Q and then Superdex75 columns. The FP assay test for each compound was run in duplicates by mixing 6 μL of solution 1 containing 2.5× test compound (2.5× serial dilution from 7.8 μM maximum concentration, 11 total concentrations) and 7.5 nM of the FP probe in 80 mM PIPES, pH 7.0, 0.02% Tween 20, 2 mM MgCl2, 1 mM EGTA and 3% DMSO with 9 μL of solution 2 containing […] porcine tubulin and 167 nM of RB3-SLD-dm peptide ([…]-[…]) on ProxiPlate-384 micro-plates.

| Structure (SMILES) | IC50 |
| --- | --- |
| CCOC(=O)c1ncoc1[C@H](Cc1ccccc1)NC(=O)c1csc([C@@H](C[C@H](C(C)C)N(C)C(=O)[C@@H](NC(=O)[C@@]2(C)CCCN2C)[C@@H](C)CC)OC(C)=O)n1 [#B75, 1,2-dimethyl-D-prolyl-N-{(1R,3R)-1-(acetyloxy)-1-[4-({(1S)-1-[4-(ethoxycarbonyl)-1,3-oxazol-5-yl]-2-phenylethyl}carbamoyl)-1,3-thiazol-2-yl]-4-methylpentan-3-yl}-N-methyl-L-isoleucinamide] | 25.8 nM |
| CC[C@H](C)[C@H](NC(=O)[C@@]1(C)CCCN1C)C(=O)N(C)[C@H](C[C@@H](OC(C)=O)c1nc(C(=O)N[C@@H](Cc2ccccc2)CN2CCOCC2)cs1)C(C)C [#B72, 1,2-dimethyl-D-prolyl-N-[(1R,3R)-1-(acetyloxy)-4-methyl-1-(4-{[(2S)-1-(morpholin-4-yl)-3-phenylpropan-2-yl]carbamoyl}-1,3-thiazol-2-yl)pentan-3-yl]-N-methyl-L-isoleucinamide] | 32.9 nM |
| CC[C@H](C)[C@H](NC(=O)[C@@]1(C)CCCN1C)C(=O)N(C)[C@H](C[C@@H](OC(C)=O)c1nc(C(=O)NC2(c3ccccn3)CC2)cs1)C(C)C [#B63] | 105 nM |
| CC[C@H](C)[C@H](NC(=O)[C@@]1(C)CCCN1C)C(=O)N(C)[C@H](C[C@@H](OC(C)=O)c1nc(C(=O)NCCc2c[nH]cn2)cs1)C(C)C [#B54, 1,2-dimethyl-D-prolyl-N-[(1R,3R)-1-(acetyloxy)-1-(4-{[2-(1H-imidazol-4-yl)ethyl]carbamoyl}-1,3-thiazol-2-yl)-4-methylpentan-3-yl]-N-methyl-L-isoleucinamide] | 60.6 nM |
| CC[C@H](C)[C@H](NC(=O)[C@@]1(C)CCCN1C)C(=O)N(C)[C@H](C[C@@H](OC(C)=O)c1nc(C(=O)NC(Cc2ccccc2)c2ccc(N(C)C)cc2)cs1)C(C)C (stereo partly drawn) [#B66, 1,2-dimethyl-D-prolyl-N-{(1R,3R)-1-(acetyloxy)-1-[4-({1-[4-(dimethylamino)phenyl]-2-phenylethyl}carbamoyl)-1,3-thiazol-2-yl]-4-methylpentan-3-yl}-N-methyl-L-isoleucinamide] | 52.2 nM |
| CC[C@H](C)[C@H](NC(=O)[C@@]1(C)CCCN1C)C(=O)N(C)[C@H](C[C@@H](OC(C)=O)c1nc(C(=O)NCCNC(=O)c2ccccc2)cs1)C(C)C [#B60, 1,2-dimethyl-D-prolyl-N-[(1R,3R)-1-(acetyloxy)-1-(4-{[2-(benzoylamino)ethyl]carbamoyl}-1,3-thiazol-2-yl)-4-methylpentan-3-yl]-N-methyl-L-isoleucinamide] | 108 nM |
| CC[C@H](C)[C@H](NC(=O)[C@@]1(C)CCCN1C)C(=O)N(C)[C@H](C[C@@H](OC(C)=O)c1nc(C(=O)NCCC2CCCCC2)cs1)C(C)C [#B49, 1,2-dimethyl-D-prolyl-N-[(1R,3R)-1-(acetyloxy)-1-{4-[(2-cyclohexylethyl)carbamoyl]-1,3-thiazol-2-yl}-4-methylpentan-3-yl]-N-methyl-L-isoleucinamide] | 127 nM |
| CC[C@H](C)[C@H](NC(=O)[C@@]1(C)CCCN1C)C(=O)N(C)[C@H](C[C@@H](OC(C)=O)c1nc(C(=O)NCC2OCCc3ccccc32)cs1)C(C)C (stereo partly drawn) [#B69, 1,2-dimethyl-D-prolyl-N-[(1R,3R)-1-(acetyloxy)-1-{4-[(3,4-dihydro-1H-isochromen-1-ylmethyl)carbamoyl]-1,3-thiazol-2-yl}-4-methylpentan-3-yl}-N-methyl-L-isoleucinamide] | 29.9 nM |
| CC[C@H](C)[C@H](NC(=O)[C@@]1(C)CCCN1C)C(=O)N(C)[C@H](C[C@@H](OC(C)=O)c1nc(C(=O)NCCN2CCOC2=O)cs1)C(C)C [#B64, 1,2-dimethyl-D-prolyl-N-[(1R,3R)-1-(acetyloxy)-4-methyl-1-(4-{[2-(2-oxo-1,3-oxazolidin-3-yl)ethyl]carbamoyl}-1,3-thiazol-2-yl)pentan-3-yl]-N-methyl-L-isoleucinamide] | 73 nM |
| CC[C@H](C)[C@H](NC(=O)[C@@]1(C)CCCN1C)C(=O)N(C)[C@H](C[C@@H](OC(C)=O)c1nc(C(=O)NCCc2cnn(C)c2)cs1)C(C)C [#B77, 1,2-dimethyl-D-prolyl-N-[(1R,3R)-1-(acetyloxy)-4-methyl-1-(4-{[2-(1-methyl-1H-pyrazol-4-yl)ethyl]carbamoyl}-1,3-thiazol-2-yl)pentan-3-yl]-N-methyl-L-isoleucinamide] | 249 nM |
| CC[C@H](C)[C@H](NC(=O)[C@@]1(C)CCCN1C)C(=O)N(C)[C@H](C[C@@H](OC(C)=O)c1nc(C(=O)NCCc2ccc(-c3ccccc3)cc2)cs1)C(C)C [#B45, 1,2-dimethyl-D-prolyl-N-[(1R,3R)-1-(acetyloxy)-1-(4-{[2-(biphenyl-4-yl)ethyl]carbamoyl}-1,3-thiazol-2-yl)-4-methylpentan-3-yl]-N-methyl-L-isoleucinamide] | 436 nM |
| CC[C@H](C)[C@H](NC(=O)[C@@]1(C)CCCN1C)C(=O)N(C)[C@H](C[C@@H](OC(C)=O)c1nc(C(=O)NC2(Cc3ccccc3)CCCCC2)cs1)C(C)C [#B47, 1,2-dimethyl-D-prolyl-N-[(1R,3R)-1-(acetyloxy)-1-{4-[(1-benzylcyclohexyl)carbamoyl]-1,3-thiazol-2-yl}-4-methylpentan-3-yl]-N-methyl-L-isoleucinamide] | 202 nM |
| CC[C@H](C)[C@H](NC(=O)C(C)(C)N(C)C)C(=O)N(C)[C@H](C[C@@H](OC(C)=O)c1nc(C(=O)N[C@@H](Cc2ccccc2)C[C@H](C)C(=O)OC)cs1)C(C)C [#B34, N,N,-2-trimethylalanyl-N-[(1R,3R)-1-(acetyloxy)-1-(4-{[(2R,4S)-5-methoxy-4-methyl-5-oxo-1-phenylpentan-2-yl]carbamoyl}-1,3-thiazol-2-yl)-4-methylpentan-3-yl]-N-methyl-L-isoleucinamide] | 24.8 nM |
| CC[C@H](C)[C@H](NC(=O)[C@@]1(C)CCCN1C)C(=O)N(C)[C@H](C[C@@H](OC(C)=O)c1nc(C(=O)NCCN2CCOCC2)cs1)C(C)C [#B46, 1,2-dimethyl-D-prolyl-N-[(1R,3R)-1-(acetyloxy)-4-methyl-1-(4-{[2-(morpholin-4-yl)ethyl]carbamoyl}-1,3-thiazol-2-yl)pentan-3-yl]-N-isomethyl-L-leucinamide] | 282 nM |
| CC[C@H](C)[C@H](NC(=O)C(C)(C)N)C(=O)N(C)[C@H](C[C@@H](OC(C)=O)c1nc(C(=O)N[C@@H](Cc2ccccc2)C[C@H](C)C(=O)OC)cs1)C(C)C [#B35, 2-methylalanyl-N-[(1R,3R)-1-(acetyloxy)-1-(4-{[(2R,4S)-5-methoxy-4-methyl-5-oxo-1-phenylpentan-2-yl]carbamoyl}-1,3-thiazol-2-yl)-4-methylpentan-3-yl]-N-methyl-L-isoleucinamide] | 96.8 nM |
| CC[C@H](C)[C@H](NC(=O)[C@@]1(C)CCCN1C)C(=O)N(C)[C@H](C[C@@H](OC(C)=O)c1nc(C(=O)NCCc2cccc3ccccc23)cs1)C(C)C [#B70, 1,2-dimethyl-D-prolyl-N-[(1R,3R)-1-(acetyloxy)-4-methyl-1-(4-{[2-(naphthalen-1-yl)ethyl]carbamoyl}-1,3-thiazol-2-yl)pentan-3-yl]-N-methyl-L-isoleucinamide] | 56.3 nM |
| CC[C@H](C)[C@H](NC(=O)[C@@]1(C)CCCN1C)C(=O)N(C)[C@H](C[C@@H](OC(C)=O)c1nc(C(=O)NCCc2c[nH]c3ccccc23)cs1)C(C)C [#B59, 1,2-dimethyl-D-prolyl-N-[(1R,3R)-1-(acetyloxy)-1-(4-{[2-(1H-indol-3-yl)ethyl]carbamoyl}-1,3-thiazol-2-yl)-4-methylpentan-3-yl]-N-methyl-L-isoleucinamide] | 64.6 nM |
| CC[C@H](C)[C@H](NC(=O)[C@@]1(C)CCCN1C)C(=O)N(C)[C@H](C[C@@H](OC(C)=O)c1nc(C(=O)NC2(c3ccccc3)CC2)cs1)C(C)C [#B52, 1,2-dimethyl-D-prolyl-N-[(1R,3R)-1-(acetyloxy)-4-methyl-1-{4-[(1-phenylcyclopropyl)carbamoyl]-1,3-thiazol-2-yl}pentan-3-yl]-N-methyl-L-isoleucinamide] | 61.8 nM |
| CC[C@H](C)[C@H](NC(=O)[C@@]1(C)CCCN1C)C(=O)N(C)[C@H](C[C@@H](OC(C)=O)c1nc(C(=O)NCCN2Cc3ccccc3C2=O)cs1)C(C)C [#B44, 1,2-dimethyl-D-prolyl-N-[(1R,3R)-1-(acetyloxy)-4-methyl-1-(4-{[2-(1-oxo-1,3-dihydro-2H-isoindol-2-yl)ethyl]carbamoyl}-1,3-thiazol-2-yl)pentan-3-yl]-N-methyl-L-isoleucinamide] | 47.6 nM |
| CC[C@H](C)[C@H](NC(=O)[C@@]1(C)CCCN1C)C(=O)N(C)[C@H](C[C@@H](OC(C)=O)c1nc(C(=O)NCC2(c3ccccc3)CCN(C)CC2)cs1)C(C)C [#B65, 1,2-dimethyl-D-prolyl-N-[(1R,3R)-1-(acetyloxy)-4-methyl-1-(4-{[(1-methyl-4-phenylpiperidin-4-yl)methyl]carbamoyl}-1,3-thiazol-2-yl)pentan-3-yl]-N-methyl-L-isoleucinamide] | 33.8 nM |
